Columns and labels:
α-glucosidase [1] = biological target: T1, α-glucosidase (Saccharomyces cerevisiae, UniProt P53341); experiment: α-glucosidase inhibition assay (96-well, pNPG substrate, 405 nm); assay type: biochemical; settings: S3 Table; for OD of sample: absorbance at 405 nm; for inhibition at 500 µM (stock): test compound 20 μL of 0.5 mM, read-out: Percentage Inhibition
Procedure: The assay is based on the method given by Pistia-Brueggeman with slight modifications. In a 96-well plate 120 μL of sodium phosphate buffer (pH = 7) was taken and 20 μL of the enzyme (2U/mL) was added. Then 20 μL of test compound (0.5 mM) was added and then incubated for 15 min. at 37 °C. In sequence, substrate pNPG (20 μL, 1mM) was taken in each well, and dissolved in buffer. The reaction mixture was again incubated for 15 min. at 37 °C. The reaction was stopped by the addition of 20 μL of 0.1 mM Na2CO3, so that the final volume reaches 200 μL. The activity of the enzyme was measured spectrophotometrically at 405 nm by measuring the concentration of product formed, using SpectraMax M2 (Molecular Devices CA, USA). Each sample was taken in triplicate and the % inhibition was measured. […]

carbonic anhydrase II = biological target: carbonic anhydrase II; design: method as in earlier work; settings: cited from earlier work
α-glucosidase [2] = biological target: T1, α-glucosidase; experiment: Kinetic studies, Line-weaver Burk plot (type of enzyme inhibition); assay type: biochemical; settings: Vmax and Km both change with inhibitor concentration
Procedure: The type of enzyme inhibition was determined by using the Line-weaver Burk plot. For this, out of 4 different concentrations of each sample, each concentration is analyzed against 4 different concentrations of substrate ranging from 1 mM to 0.125 mM. The inverse of maximum velocity (1/Vmax), obtained for each concentration, is plotted against the inverse of substrate concentrations (1/[S]) to find out type of enzyme inhibition.

urease = system: urease; design: method as in earlier work; settings: cited from earlier work

T1 sequence (P53341 whole entry): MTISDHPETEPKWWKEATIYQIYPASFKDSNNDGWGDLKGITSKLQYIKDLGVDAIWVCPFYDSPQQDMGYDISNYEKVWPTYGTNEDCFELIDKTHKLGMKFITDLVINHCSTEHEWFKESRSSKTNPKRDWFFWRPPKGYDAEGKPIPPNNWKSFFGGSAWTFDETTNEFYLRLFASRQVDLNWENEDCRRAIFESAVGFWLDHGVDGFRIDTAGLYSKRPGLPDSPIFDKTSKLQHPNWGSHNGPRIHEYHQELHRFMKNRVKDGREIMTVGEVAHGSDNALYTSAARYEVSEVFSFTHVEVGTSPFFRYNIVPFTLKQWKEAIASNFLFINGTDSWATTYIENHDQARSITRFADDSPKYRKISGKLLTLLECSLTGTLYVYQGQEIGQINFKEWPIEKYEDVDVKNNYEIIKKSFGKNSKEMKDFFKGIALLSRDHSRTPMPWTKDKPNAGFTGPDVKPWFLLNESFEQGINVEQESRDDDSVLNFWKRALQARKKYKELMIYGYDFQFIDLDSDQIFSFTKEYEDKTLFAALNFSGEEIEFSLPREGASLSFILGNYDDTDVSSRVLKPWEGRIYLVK

| Structure (SMILES) | OD of sample (α-glucosidase [1]) | inhibition at 500 µM (stock) (α-glucosidase [1]) [%] | IC50 (carbonic anhydrase II) [µM] | mode (type) of enzyme inhibition (α-glucosidase [2]) | IC50 (urease) [µM] |
| --- | --- | --- | --- | --- | --- |
| COc1ccc(S(=O)(=O)N2CCC(c3nnc(SC(C)C(=O)Nc4ccc(C)cc4)n3-c3ccccc3)CC2)cc1 (stereo not drawn) [compound 185] | 0.49 | 81.9 | – | – | – |
| O=C1Oc2ccccc2C(=O)/C1=C/c1ccc(-c2ccccc2)cc1 [compound 54] | 0.39 | 85.6 | – | – | – |
| CCCCCCCCCCCCSc1nc2ccccc2n1CC(=O)N/N=C/c1ccc(O)c(OCC)c1 [compound 96] | 0.64 | 80.1 | – | – | – |
| O=C(C1=C(c2ccccc2)NC(=S)NC1c1cccc(O)c1)c1ccccc1 (stereo not drawn) [(4-(3-hydroxyphenyl)-6-phenyl-2-thioxo-1,2,3,4-tetrahydropyrimidin-5-yl)phenyl)methanone] | – | – | 98 | – | – |
| Clc1ccc(-c2nnc(-c3ccc[nH]3)o2)c(Cl)c1 [compound 25, 2-(2,4-dichlorophenyl)-5-(1H-pyrrol-2-yl)-1,3,4-oxadiazole] | 0.33 | 90 | – | un-competitive | – |
| CCSc1nc2ccccc2n1CC(=O)N/N=C/c1ccc(O)cc1O [compound 228, (E)-N’-(2,4-dihydroxybenzylidene)-2-(2-(ethylthio)-1H-benzo[d]imidazol-1-yl)acetohydrazide] | 0.30 | 91.2 | – | un-competitive | – |
| N=C(N)NCCC[C@@H](N)c1nnc(-c2cccs2)o1 [(R)-1-(4-amino-4-(5-(thiophen-2-yl)-1,3,4-oxadiazol-2-yl)butyl)guanidine] | – | – | – | – | 47 |
| O=[N+]([O-])c1ccc(N/N=C\c2ccc(O)cc2)c([N+](=O)[O-])c1 [compound 5] | 0.62 | – | – | – | – |
